Residues, ends and D or L forms follow the SMILES beside them.
Key:
[1] = Pre-administration of RES inhibitors before CRPPR-3 liposomes; format: in vivo, mice; details: for decrease of accumulation within the heart: 90 minute time point, pre-administration before CRPPR-3 liposomes; for ratio of radioactivity in the heart with and without inhibitors: well counts at 90 minutes after CRPPR-3 liposome injection
Protocol: Blank liposomes: blank liposomes (DPPC:DSPE-PEG2000=98:2 (mol/mol), with diameter 100 nm) with 300 μg lipids (12 mg/kg) in 100 μl saline were injected 15 minutes before the radiolabeled targeted liposomes. Polyinosinic acid (PI): PI (P4154), purchased from Sigma-Aldrich, was dissolved in 0.9% sterile injection saline at 2 mg/ml. A small amount of sodium hydroxide solution was added to dissolve PI powder and the pH of the PI solution was adjusted to 7.4 with HCl solution. 5 μl of PI solution (˜10 μg of PI, 0.4 mg/kg) was diluted with 100 μl saline and injected 1 minute before the injection of the radiolabeled targeted liposomes. Control animals received an equal volume of saline solution. Clodronate liposomes: Clodronate liposomes were prepared as in [21]. 100 μl of clodronate liposomes (˜0.05 mg, 2 mg/kg) were injected 24 hours in advance of the administration of radiolabeled targeted liposomes. Control animals received an equal volume of saline solution. Free CRPPR Peptide (SEQ ID NO: 1): 700 μg of CRPPR peptides (SEQ ID NO: 1) (25 mg/kg) were injected 1 minute before the administration of radiolabeled targeted liposomes. Control animals received an equal volume of injection saline solution.

heart endothelium = details: described in [4]; cited from earlier work

Molecule	decrease of accumulation within the heart [1] [%]	ratio of radioactivity in the heart with and without inhibitors [1]	target-to-muscle ratio, phage targeting (heart endothelium)
NC(N)=NCCC[C@H](NC(=O)[C@@H]1CCCN1C(=O)[C@@H]1CCCN1C(=O)[C@H](CCCN=C(N)N)NC(=O)[C@@H](N)CS)C(=O)O [CRPPR] (H-CRPPR-OH)	~19	0.81	greater than 300 fold
Polyinosinic acid [PI]	41	0.59	
